These results are taken from patent publication US20120157464A1, “USE OF AZABICYCLOALKYL DERIVATIVES OR PYRROLIDINE-2-ONE DERIVATIVES FOR THE TREATMENT OR PREVENTION OF ATAXIA” (NOVARTIS AG, priority 2009, published 2012).

A value given as a limit tells only on which side of the number the result lay.

Data set [1] is described as follows: Oral bioavailability and brain penetration in mice. It is filed as in vivo. The settings on record: 30 μmol/kg p.o.; for concentration at 0.25 h / concentration at 0.5 h / concentration at 1 h / concentration at 2 h / concentration at 4 h / concentration at 8 h: plasma. How it is done:
Assay: Compounds were orally (30 μmol/kg) administered. Male mice (30-35 g, OF1/ICstrain) were sacrificed at indicated time points after oral administration. Trunk-blood was collected in EDTA-containing tubes and the brain was removed and immediately frozen on dry ice. To 100 μl plasma 10 μl internal standard (1.0 μmol of a compound with solubility and ionization properties similar to test compounds) was added and extracted three times with 500 μl dichloromethane. The combined extracts were then dried under a stream of nitrogen and re-dissolved in 100 μl acetonitrile/water (70% acetonitrile). Brains were weighed and homogenized in water (1:5 w/v). Two 100 μl aliquots of each homogenate 4-10 μl of internal standard (same standard as used for the plasma samples) were extracted three times with 500 μl dichlorornethane and further processed as the plasma samples. Samples were separated on Beckmann high-performance liquid chromatography equipment system with an autosampler (Gilson 233XL).
The limit of detection (LOD), defined as the lowest concentration of the extracted standard sample with a signal to noise ratio of ˜3.

Data set [2] addresses T1, human neuronal nAChR α4β2 (Homo sapiens, UniProt P17787+P43681).
T1 construct: expressed in transfected cells
The experiment in a line: similar functional assay in a human epithelial cell line stably expressing the human α4β2 subtype. It is filed as cell-based. How it is done: (§1) Assay described in: D Feuerbach et al, Neuropharmacology (2005), 48, 215-227. To assess the activity of the compound of the invention on the human neuronal nAChR α4β2, a similar functional assay is carried out using a human epithelial cell line stably expressing the human α4β2 subtype (Michelmore et al., Naunyn-Schmiedeberg's Arch. Pharmacol. (2002) 366, 235),

In data set [3] the test system is mice. The experiment in a line: Social Recognition Test in mice. The settings on record: oral, familiar partner at 24 h vs time 0. Type of data set: in vivo. How it is done:
Assay: Social interactions between two experimental animals are influenced by their degree of familiarity: the better they know each other, the less time they spend on mutual scrutiny at each meeting. […] Memory enhancing agents (i.e. oxiracetam) facilitate learning to the extent that the previously met (familiar) partner is still remembered after 24 h, whereas in vehicle treated control animals the memory usually fades after less than 1 hour (Thor and Holloway, 1982) or after 2-3 hours.
Baseline-test: Pairs consisting of one adult and one young mouse were assigned at random to the experimental and control groups. In each pair only the adult mouse was orally treated 1 hour before the trial with either vehicle or the test compound. The duration of active contacts of the adult mouse with the young mouse was manually recorded over a period of 3 min, including the following behavioural, approach-related items: sniffing, nosing, grooming, licking, pawing and playing, anogenital exploration and orientation toward the young mouse; orientation, thereby, was defined as tip of nose of the adult mouse less than approximately 1 cm distant from the young mouse's body. […]

Data set [4] addresses T2, human α7-nAChR (Homo sapiens, UniProt P36544).
T2 construct: expressed in transfected cells; host or cells: GH3 cells
In words: functional calcium (FLIPR) assay in GH3 cells recombinantly expressing human α7-nAChR. The settings on record: for EC50: GH3 cells expressing human α7-nAChR, calcium FLIPR, read-out: α7-nAChR activity Potency EC50. It is filed as cell-based. Here is the method:
Assay. To assess a7-nAChR activity, a functional assay was employed using GH3 cells that recombinantly expressed human α7-nAChR, 5×10^4 cells per well were seeded 72 h prior to the experiment on black 96-well plates (Costar) and incubated at 37° C. in a humidified atmosphere (5% CO2/95% air). On the day of the experiment, medium was removed by flicking the plates and replaced with 100 μl growth medium containing […] Fluo-4, (Molecular Probes) in the presence of 2.5 mM probenecid (Sigma). The cells were incubated at 37° C. in a humidified atmosphere (5% CO2/95% air) for 1 h. Plates were flicked to remove excess of Fluo-4, washed twice with Hepes-buffered salt solution (in mM: NaCl 130, KCl 5.4 CaCl2 2, MgSO4 0.8, NaH2PO4 0.9, glucose 25, Hepes 20, pH 7.4; HBS) and refilled with 100 μl of HBS containing antagonist when appropriate. The incubation in the presence of the antagonist lasted 3-5 minutes. Plates were placed in the cell plate stage of a FLIPR device (fluorescent imaging plate reader, Molecular Devices, Sunnyvale, Calif., USA).
After recording of the baseline (laser: excitation 488 nm at 1 W, CCD camera opening of 0.4 seconds) the agonists (50 μl) were added to the cell plate using the FLIPR 96-tip pipettor while simultaneously recording the fluorescence, Calcium kinetic data were normalized to the maximal fitted response induced by epibatidine, which is a full agonist at α7-nAChR, Four parameter Hill equations were fitted to the concentration-response. Values of Emax (maximal effect in % compared to the epibatidine response) and EC50 (concentration producing half the maximal effect in μM) were derived from this fit.
as §1

Data set [5] concerns FRDA. The settings on record: cited from earlier work.
Data set [6] concerns patients with SCA3/SCA14. As to conditions: two patients with SCA3/SCA14, varenicline p.o. 0.5 mg/kg per day; cited from earlier work.
The test system of data set [7] is patients with FRDA. The settings on record: two patients with FRDA, varenicline p.o. 0.5 mg/kg per day; cited from earlier work.
The conditions of data set [8]: clinical use in humans; cited from earlier work.
Setting [9] is: male, OF1/IC, mouse, brain, po, 30 umol/kg, 0.5 hour, read-out: Ratio Brain/plasma.
[10] abbreviates: male, OF1/IC, mouse, brain, po, 30 umol/kg, 1 hour, read-out: Ratio Brain/plasma.
The mark [11] stands for this setting: male, OF1/IC, mouse, brain, po, 30 umol/kg, 2 hour, read-out: Ratio Brain/plasma.
Where [12] appears, read: male, OF1/IC, mouse, brain, po, 30 umol/kg, 4 hour, read-out: Ratio Brain/plasma.
[13] abbreviates: male, OF1/IC, mouse, brain, po, 30 umol/kg, 0.25 hour, read-out: Ratio Brain/plasma.
The mark [14] stands for this setting: male, OF1/IC, mouse, brain, po, 30 umol/kg, 8 hour, read-out: Ratio Brain/plasma.
Setting [15] is: male, OF1/IC, mouse, po, 0.25 hour.
Where [16] appears, read: male, OF1/IC, mouse, po, 0.5 hour.
[17] abbreviates: male, OF1/IC, mouse, po, 1 hour.
Setting [18] is: male, OF1/IC, mouse, po, 2 hour.
The mark [19] stands for this setting: male, OF1/IC, mouse, po, 4 hour.
Setting [20] is: male, OF1/IC, mouse, po, 8 hour.

T1 sequence (P43681 29-627 limits assumed): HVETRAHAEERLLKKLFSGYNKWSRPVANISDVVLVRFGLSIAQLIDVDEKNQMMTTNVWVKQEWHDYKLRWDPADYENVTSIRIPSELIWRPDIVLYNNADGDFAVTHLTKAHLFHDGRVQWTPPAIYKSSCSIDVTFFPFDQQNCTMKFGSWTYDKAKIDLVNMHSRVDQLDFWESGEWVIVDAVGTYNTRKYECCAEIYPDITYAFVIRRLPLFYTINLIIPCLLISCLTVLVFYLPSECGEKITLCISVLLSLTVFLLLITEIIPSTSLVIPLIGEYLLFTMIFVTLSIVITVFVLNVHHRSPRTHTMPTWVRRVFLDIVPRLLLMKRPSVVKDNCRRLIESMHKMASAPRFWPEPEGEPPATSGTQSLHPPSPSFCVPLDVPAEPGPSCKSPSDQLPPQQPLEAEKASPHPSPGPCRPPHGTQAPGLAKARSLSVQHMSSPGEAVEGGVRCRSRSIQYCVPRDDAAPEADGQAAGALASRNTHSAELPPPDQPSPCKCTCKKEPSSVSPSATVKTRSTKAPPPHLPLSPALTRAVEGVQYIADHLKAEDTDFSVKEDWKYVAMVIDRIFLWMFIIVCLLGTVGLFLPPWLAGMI
T1 sequence (P17787 26-502): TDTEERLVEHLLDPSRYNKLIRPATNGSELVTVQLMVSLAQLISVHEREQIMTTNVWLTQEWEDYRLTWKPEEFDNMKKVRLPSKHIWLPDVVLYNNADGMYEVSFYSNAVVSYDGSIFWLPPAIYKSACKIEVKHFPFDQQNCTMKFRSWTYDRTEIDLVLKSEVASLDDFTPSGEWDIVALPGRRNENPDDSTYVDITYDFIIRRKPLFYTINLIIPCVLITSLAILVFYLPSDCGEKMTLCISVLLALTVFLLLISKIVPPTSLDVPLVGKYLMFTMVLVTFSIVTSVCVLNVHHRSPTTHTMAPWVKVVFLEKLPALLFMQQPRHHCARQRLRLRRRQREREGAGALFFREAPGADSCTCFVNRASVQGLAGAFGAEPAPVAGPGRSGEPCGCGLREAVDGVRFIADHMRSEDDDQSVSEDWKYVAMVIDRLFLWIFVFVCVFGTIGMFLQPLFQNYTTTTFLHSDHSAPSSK
T2 sequence (P36544 23-502): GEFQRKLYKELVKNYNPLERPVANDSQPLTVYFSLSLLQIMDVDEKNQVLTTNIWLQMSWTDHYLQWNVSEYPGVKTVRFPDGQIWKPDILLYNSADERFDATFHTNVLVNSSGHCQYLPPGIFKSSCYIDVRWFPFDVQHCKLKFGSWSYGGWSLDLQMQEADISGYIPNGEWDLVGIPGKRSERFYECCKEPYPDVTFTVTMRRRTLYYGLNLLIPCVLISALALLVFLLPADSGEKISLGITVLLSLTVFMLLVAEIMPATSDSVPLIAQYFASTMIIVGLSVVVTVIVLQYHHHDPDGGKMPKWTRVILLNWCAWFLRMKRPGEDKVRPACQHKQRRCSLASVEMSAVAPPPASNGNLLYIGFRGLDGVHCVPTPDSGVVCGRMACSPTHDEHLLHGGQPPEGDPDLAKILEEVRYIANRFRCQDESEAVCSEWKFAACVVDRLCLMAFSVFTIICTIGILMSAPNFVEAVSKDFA

Broadly, the IC50 is the concentration that gives 50% inhibition. A lower IC50 goes with higher potency. As for `C[C@H](OC(=O)N[C@@H]1CN2CCC1CC2)c1ccccc1F` [Compound A-1, (S)-(1-aza-bicyclo[2.2.2]oct-3-yl)-carbamic acid S-1-(2-fluoro-phenyl)ethylester], the Brain in data set [1] (0.5 hour) was 706.3 ± 153.4 pmoles/g ± SD; in data set [1] (1 hour), 573.7 ± 109.3 pmoles/g ± SD; in data set [1] (2 hour), 191.9 ± 34.9 pmoles/g ± SD; in data set [1] (4 hour) it was 104.6 ± 39.6 pmoles/g ± SD; in data set [1] (6 hour), 40.5 ± 12.1 pmoles/g ± SD; in data set [1] (24 hour) it was 9.1 ± 2.7 pmoles/g ± SD. Besides, the Plasma is reported as 634.9 ± 261.3 pmoles/ml ± SD in data set [1] (0.5 hour); 684.7 ± 339.6 pmoles/ml ± SD in data set [1] (1 hour); 168.2 ± 91.3 pmoles/ml ± SD in data set [1] (2 hour); 85.0 ± 54.3 pmoles/ml ± SD in data set [1] (4 hour); 29.5 ± 13.8 pmoles/ml ± SD in data set [1] (6 hour); 3.8 ± 0.6 pmoles/ml ± SD in data set [1] (24 hour). Also, the Kp at 0.5 h in data set [1] (setting [9]) came out at 1.1. Besides, the Kp at 1 h in data set [1] (setting [10]) stood at 0.8. The Kp at 2 h in data set [1] (setting [11]) was 1.1. For the same compound, in data set [1] (setting [12]), the Kp at 4 h was 1.2. For the same compound, in data set [1] (male, OF1/IC, mouse, brain, po, 30 umol/kg, 6 hour, read-out: Ratio Brain/plasma), the Kp at 6 h is 1.4. In addition, the Kp at 24 h in data set [1] (male, OF1/IC, mouse, brain, po, 30 umol/kg, 24 hour, read-out: Ratio Brain/plasma) was 2.4. For the same compound, it took 23.4 µM to reach half-maximal inhibition in data set [2] (IC50). For the same compound, in data set [3] (dose 3 mg/kg), the “Reduction in time scrutinizing in % ± SEM at 24 h” value is on record as 52 ± 4 % ± SEM. The “α7-nAChR activity Efficacy compared to epibatidine (100%)” value in data set [4] (Emax, maximal effect in % compared to the epibatidine response) was determined as 83%.

Usually EC50 stands for the concentration giving half of the maximal effect. As to `C[C@H]1[C@H](Oc2ccc(-c3ccc4[nH]ccc4c3)nn2)C2CCN1CC2` [Compound B-13, (2S,3R)-3-[6-(1H-indol-5-yl)-pyridazin-3-yloxy]-2-methyl-1-aza-bicyclo[2.2.2]octane], the Brain was 1884 ± 291 pmoles/g ± SD in data set [1] (0.25 hour); 2960 ± 706 pmoles/g ± SD in data set [1] (0.5 hour); 2940 ± 335 pmoles/g ± SD in data set [1] (1 hour); 1260 ± 172 pmoles/g ± SD in data set [1] (2 hour); 379 ± 134 pmoles/g ± SD in data set [1] (4 hour); 93 ± 30 pmoles/g ± SD in data set [1] (8 hour). In data set [1] (24 hour), the Brain is 13 ± 4 pmoles/g ± SD. For the same compound, the Kp at 0.25 h in data set [1] (setting [13]) was 0.86. The Kp at 0.5 h in data set [1] (setting [9]) was determined as 1.31. Moreover, the Kp at 1 h in data set [1] (setting [10]) worked out at 1.89. In data set [1] (setting [11]), the Kp at 2 h came to 1.07. For the same compound, the Kp at 4 h in data set [1] (setting [12]) came to 0.88. Further, the Kp at 8 h in data set [1] (setting [14]) amounted to 1.17. This compound had a concentration at 0.25 h in data set [1] (setting [15]) of 2200 ± 397 nM. Besides, in data set [1] (setting [16]), the concentration at 0.5 h turned out to be 2260 ± 419 nM. In data set [1] (setting [17]), this compound gave a concentration at 1 h of 1550 ± 523 nM. Moreover, in data set [1] (setting [18]), the concentration at 2 h amounted to 1170 ± 252 nM. The compound also displayed a concentration at 4 h in data set [1] (setting [19]) of 429 ± 167 nM. The compound also gave a concentration at 8 h in data set [1] (setting [20]) of 80 ± 23 nM. Moreover, the concentration for a half-maximal effect (EC50) in data set [2] is above 100 µM; in data set [4] it was 0.013 µM. This compound yielded an IC50 in data set [2] of 4.22 µM. Moreover, in data set [3] (dose 0.3 mg/kg), the “Reduction in time scrutinizing in % ± SEM at 24 h” value is recorded as 37 ± 7 % ± SEM.

For the compound `c1cc2cc(-c3cnc(O[C@H]4CCN5CCC[C@@H]4C5)nc3)ccc2[nH]1` [Compound C-1, (4S,5R)-4-[5-(1H-indol-5-yl)-pyrimidin-2-yloxy]-1-aza-bicyclo[3.3.1]nonane], the Brain in data set [1] (0.25 hour) is listed as 620 ± 221 pmoles/g ± SD; in data set [1] (0.5 hour), 1405 ± 539 pmoles/g ± SD; in data set [1] (1 hour), 1458 ± 189 pmoles/g ± SD; in data set [1] (2 hour), 1478 ± 259 pmoles/g ± SD; in data set [1] (4 hour) it was 842 ± 187 pmoles/g ± SD; in data set [1] (8 hour), 362 ± 62 pmoles/g ± SD. The Kp at 0.25 h in data set [1] (setting [13]) is 0.39. Also, the Kp at 0.5 h in data set [1] (setting [9]) is 0.41. Besides, in data set [1] (setting [10]), the Kp at 1 h worked out at 1.17. For the same compound, in data set [1] (setting [11]), the Kp at 2 h worked out at 1.69. For the same compound, the Kp at 4 h in data set [1] (setting [12]) was determined as 1.11. Besides, the Kp at 8 h in data set [1] (setting [14]) worked out at 1.51. For the same compound, the concentration at 0.25 h in data set [1] (setting [15]) was 1600 ± 758 nM. The compound further yielded a concentration at 0.5 h in data set [1] (setting [16]) of 3410 ± 956 nM. This compound also returned a concentration at 1 h in data set [1] (setting [17]) of 1240 ± 583 nM. This compound gave a concentration at 2 h in data set [1] (setting [18]) of 875 ± 261 nM. In addition, the concentration at 4 h in data set [1] (setting [19]) was 762 ± 159 nM. Besides, the concentration at 8 h in data set [1] (setting [20]) was found to be 239 ± 27 nM. Further, the values for the EC50 in data set [2] and in data set [4] were above 100 µM and 0.024 µM, respectively. The IC50 in data set [2] amounted to 9.33 µM.

As to `Cc1c(O)c(=O)ccn1C` [deferiprone], in data set [5], the “effects in clinical trials for FRDA” value was “showed effects in clinical trials”.

For `COC1=C(OC)C(=O)C(CCCCCCCCCCO)=C(C)C1=O` [idebenone], in data set [5], the “effects in clinical trials for FRDA” value was “showed effects in clinical trials”.

Take `c1cnc2cc3c(cc2n1)C1CNCC3C1` [varenicline, 7,8,9,10-tetrahydro-6,10-methano-6H-pyrazino-(2,3-h)(3)-benzazepine]: the “ataxia improvements in patients” value in data set [6] and in data set [7] was “showed improvements” throughout. Besides, the “adverse effects reported during clinical use” value in data set [8] was “nausea, sleep disturbance, constipation, vivid dreams, flatulence and vomiting”.
